Laboratory results: ChEMBL document CHEMBL1201862, “PubChem BioAssay data set” (2004)
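Test compounds were applied to cells in 96-well plates for 48 hours at 5 doses. Here, GI50 denotes the concentration required for 50% inhibition of growth.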 Activity calls are given as the source filed them. Rule as the data show it: active = GI50 up to about 1.1 µM and inactive = higher.

How the values were obtained:
Assay in all cases: NCI-60 cell line screen, 48 h
[1] = system: UACC-257
[2] = system: ACHN
[3] = system: HCC 2998
[4] = system: NCI-H522
[5] = system: HOP-62
[6] = system: SK-OV-3
[7] = system: RPMI-8226
[8] = system: EKVX
[9] = system: M14
[10] = system: SNB-19
[11] = system: SF-268
[12] = system: U-251
[13] = system: CAKI-1
[14] = system: CCRF-CEM
[15] = system: SN12C
[16] = system: OVCAR-8

Row | Compound | GI50 [1] | GI50 [2] | GI50 [3] | GI50 [4] | GI50 [5] | GI50 [6] | GI50 [7] | GI50 [8] | GI50 [9] | GI50 [10] | GI50 [11] | GI50 [12] | GI50 [13] | GI50 [14] | GI50 [15] | GI50 [16]
1 | CCOC(=O)c1ccc(O)cc1 [ETHYLPARABEN] | > 100 µM (inactive) | > 100 µM (inactive) | > 100 µM (inactive) | > 100 µM (inactive) | > 100 µM (inactive) | > 100 µM (inactive) | > 100 µM (inactive) | > 100 µM (inactive) | > 100 µM (inactive) | > 100 µM (inactive) | > 100 µM (inactive) | > 100 µM (inactive) | > 100 µM (inactive) | > 100 µM (inactive) |  | 
2 | COc1ccc(-c2ccc(CC(=O)O)cc2)cc1OC | > 100 µM (inactive) | > 100 µM (inactive) |  | > 100 µM (inactive) | 95.5 µM (inactive) | > 100 µM (inactive) | > 100 µM (inactive) | > 100 µM (inactive) | > 100 µM (inactive) | > 100 µM (inactive) | > 100 µM (inactive) | > 100 µM (inactive) | > 100 µM (inactive) | > 100 µM (inactive) | > 100 µM (inactive) | > 100 µM (inactive)
3 | ClC1CCC2OOC1O2 (stereo not given) | > 100 µM (inactive) | > 100 µM (inactive) | > 100 µM (inactive) | > 100 µM (inactive) | > 100 µM (inactive) | > 100 µM (inactive) | > 100 µM (inactive) | > 100 µM (inactive) | > 100 µM (inactive) | > 100 µM (inactive) | > 100 µM (inactive) | > 100 µM (inactive) | > 100 µM (inactive) | 54 µM (inactive) | > 100 µM (inactive) | > 100 µM (inactive)
4 | O=C(O)CSc1ccc2nc3ccccc3c(O)c2c1 | > 100 µM (inactive) | > 100 µM (inactive) | > 100 µM (inactive) |  | > 100 µM (inactive) | > 100 µM (inactive) | > 100 µM (inactive) |  | > 100 µM (inactive) | > 100 µM (inactive) | > 100 µM (inactive) | > 100 µM (inactive) | > 100 µM (inactive) | > 100 µM (inactive) | > 100 µM (inactive) | > 100 µM (inactive)
5 | CCC1CN2CCC3(c4ccccc4)CC(C(=O)OC)=CC1C23 (stereo not given) | 16.4 µM (inactive) | 16.6 µM (inactive) | 16.7 µM (inactive) | 14.1 µM (inactive) | 19.2 µM (inactive) | 13.3 µM (inactive) | 21.3 µM (inactive) | 13.5 µM (inactive) | 14.8 µM (inactive) | 20.4 µM (inactive) | 14.3 µM (inactive) | 16.3 µM (inactive) | 18.5 µM (inactive) | > 100 µM (inactive) | 16.1 µM (inactive) | 17.9 µM (inactive)
6 | CC(=O)O[C@]1(C(C)=O)CC[C@H]2[C@@H]3C[C@H](C)C4=CC(=O)C=C[C@]4(C)[C@@]3(F)[C@@H](O)C[C@@]21C [FLUOROMETHOLONE ACETATE] | 31.1 µM (inactive) | 56.5 µM (inactive) | > 100 µM (inactive) | 62.1 µM (inactive) | > 100 µM (inactive) | < 0.01 µM (active) | 11.9 µM (inactive) | > 100 µM (inactive) | 48.3 µM (inactive) | > 100 µM (inactive) | 36.2 µM (inactive) | 87.7 µM (inactive) | 96.4 µM (inactive) | 0.213 µM (active) |  | 
7 | CCCCCCCCCCCCCCCCCCC1=C(O)C(=O)C=C(OC)C1=O | 78.2 µM (inactive) | 28.7 µM (inactive) | 38.3 µM (inactive) | 28.4 µM (inactive) | 34.3 µM (inactive) | > 100 µM (inactive) |  | 41.7 µM (inactive) | 53.2 µM (inactive) | 61.4 µM (inactive) | 38.5 µM (inactive) | 39 µM (inactive) | 39.5 µM (inactive) |  | 45.4 µM (inactive) | 32.4 µM (inactive)
8 | CC1=NN(C(=O)Cc2ccccc2)C(=O)/C1=C\c1ccco1 | > 100 µM (inactive) | > 100 µM (inactive) | > 100 µM (inactive) | > 100 µM (inactive) | > 100 µM (inactive) |  | > 100 µM (inactive) | > 100 µM (inactive) | > 100 µM (inactive) | > 100 µM (inactive) | > 100 µM (inactive) |  | > 100 µM (inactive) | > 100 µM (inactive) | > 100 µM (inactive) | > 100 µM (inactive)
9 | O=C1c2ccccc2C(=O)C1(O)c1c[nH]c2ccccc12 | > 100 µM (inactive) |  |  | > 100 µM (inactive) | > 100 µM (inactive) | > 100 µM (inactive) | > 100 µM (inactive) | > 100 µM (inactive) | > 100 µM (inactive) | > 100 µM (inactive) | > 100 µM (inactive) | > 100 µM (inactive) | > 100 µM (inactive) | > 100 µM (inactive) |  | > 100 µM (inactive)
10 | NCCSc1nc(N)c2ncn(C3OC(CO)C(O)C3O)c2n1 (stereo not given) | > 100 µM (inactive) | > 100 µM (inactive) | > 100 µM (inactive) | > 100 µM (inactive) | > 100 µM (inactive) | > 100 µM (inactive) | > 100 µM (inactive) |  | > 100 µM (inactive) | > 100 µM (inactive) | > 100 µM (inactive) | > 100 µM (inactive) | > 100 µM (inactive) | > 100 µM (inactive) | > 100 µM (inactive) | > 100 µM (inactive)
11 | Cc1cc(C)nc(NS(=O)(=O)c2ccc(Nc3c4ccccc4nc4c(C(=O)Nc5ccc(S(=O)(=O)Nc6cc(C)on6)cc5)cccc34)cc2)n1 | 25.5 µM (inactive) | 35.2 µM (inactive) | 16.8 µM (inactive) | 14.7 µM (inactive) | 21.2 µM (inactive) | 27.1 µM (inactive) | 22 µM (inactive) | 26.2 µM (inactive) | 20.8 µM (inactive) | 24.2 µM (inactive) | 24.2 µM (inactive) | 19.8 µM (inactive) | 21.9 µM (inactive) |  | 24.5 µM (inactive) | 18.4 µM (inactive)
12 | NC1=NN(c2ccccc2)C(=O)C1C(=O)C(=O)Nc1ccc(Cl)cc1 (stereo not given) | > 100 µM (inactive) | > 100 µM (inactive) | > 100 µM (inactive) | > 100 µM (inactive) | > 100 µM (inactive) | > 100 µM (inactive) | > 100 µM (inactive) | > 100 µM (inactive) | > 100 µM (inactive) |  | > 100 µM (inactive) | > 100 µM (inactive) | > 100 µM (inactive) | > 100 µM (inactive) | > 100 µM (inactive) | > 100 µM (inactive)
13 | CC(C)c1cccc(C(C)C)c1NC(=O)C(=O)C1CCC2=C(Sc3ccccc3N2)C1=O (stereo not given) | 67.3 µM (inactive) | > 100 µM (inactive) | > 100 µM (inactive) |  | > 100 µM (inactive) | 60.8 µM (inactive) | 44.4 µM (inactive) | > 100 µM (inactive) | > 100 µM (inactive) | > 100 µM (inactive) | > 100 µM (inactive) | 34.8 µM (inactive) | 64.4 µM (inactive) | 24 µM (inactive) | 28.8 µM (inactive) | 38.7 µM (inactive)
14 | COCCOCOC(CCCCO)c1cc(C)c(O[Si](C)(C)C(C)(C)C)c(C)c1 (stereo not given) | 3.01 µM (inactive) | 7.62 µM (inactive) | 7.03 µM (inactive) | 1.64 µM (inactive) | 10.8 µM (inactive) | 17.6 µM (inactive) | 2.08 µM (inactive) | 8.17 µM (inactive) | 10.3 µM (inactive) | 6.35 µM (inactive) | 6.05 µM (inactive) | 10.8 µM (inactive) |  | 4.39 µM (inactive) | 2.69 µM (inactive) | 5.01 µM (inactive)
15 | COc1ccccc1/N=N/c1c(-c2ccccc2)nn(C(=O)CC(=O)Nc2ccccc2Cl)c1-c1ccccc1 | > 100 µM (inactive) | > 100 µM (inactive) | > 100 µM (inactive) | > 100 µM (inactive) | > 100 µM (inactive) | > 100 µM (inactive) | 65.5 µM (inactive) | > 100 µM (inactive) | > 100 µM (inactive) | > 100 µM (inactive) | > 100 µM (inactive) | > 100 µM (inactive) |  | 77.8 µM (inactive) | > 100 µM (inactive) | > 100 µM (inactive)
16 | Cc1ccc(N2C(=O)C(=CN)C(=O)N(c3ccc(C)cc3)C2=O)cc1 | > 100 µM (inactive) | 37.9 µM (inactive) | 10 µM (inactive) | > 100 µM (inactive) | 44.2 µM (inactive) | 19.2 µM (inactive) |  | > 100 µM (inactive) | > 100 µM (inactive) | > 100 µM (inactive) | > 100 µM (inactive) | 10 µM (inactive) | 31.8 µM (inactive) | 89.9 µM (inactive) | 51.6 µM (inactive) | > 100 µM (inactive)
17 | N#CC1=C(N)n2c(s/c(=C\c3ccc(Cl)cc3)c2=O)=C(c2nc3ccccc3[nH]2)C1c1ccc(Cl)cc1 (stereo not given) | 2.48 µM (inactive) | 2.29 µM (inactive) | 0.411 µM (active) | 1.96 µM (inactive) | 2.23 µM (inactive) |  | 2.23 µM (inactive) | 1.88 µM (inactive) | 3.62 µM (inactive) | 3.28 µM (inactive) | 2.64 µM (inactive) | 1.48 µM (inactive) | 2.98 µM (inactive) | 1.71 µM (inactive) | 2.19 µM (inactive) | 1.81 µM (inactive)
18 | C=CCCC(=O)CC(=O)OCc1ccccc1 | > 100 µM (inactive) | > 100 µM (inactive) | > 100 µM (inactive) |  | > 100 µM (inactive) | > 100 µM (inactive) | > 100 µM (inactive) | > 100 µM (inactive) | > 100 µM (inactive) | > 100 µM (inactive) | > 100 µM (inactive) | > 100 µM (inactive) | > 100 µM (inactive) | > 100 µM (inactive) | > 100 µM (inactive) | > 100 µM (inactive)
